This is an account of results in ChEMBL document CHEMBL4270597, “Donepezil-butylated hydroxytoluene (BHT) hybrids as Anti-Alzheimer's disease agents with cholinergic, antioxidant, and neuroprotective properties” (Eur J Med Chem, 2018).

The test system of one series is BV-2. In words: Antineuroinflammatory activity in mouse BV2 cells assessed as inhibition of LPS-induced NO production at 10 to 30 uM after 24 hrs by Griess assay. It counts as functional, cell-based. (Nitrite, measured by Griess reagent, commonly stands in for NO production.)
Series [1] in a line: Half life in Sprague-Dawley rat liver microsomes in presence of NADPH by UPLC/MS analysis. On the technique in general: Liver microsomes are a subcellular fraction often used to study metabolism.
In another series the test system is Mus musculus. Kind of series: Reversal of scopolamine-induced memory impairment in ICR mouse assessed as increase in step-through latency time at 5 mg/kg, po administered for 10 consecutive days and 60 mins prior to training trial followed by scopolamine challenge at 30 mins post dose measured 24 hrs after training trial by passive avoidance test. Type of series: functional, organism-based.

The nature of series [2]: Antioxidant activity assessed as trolox equivalent of AAPH-induced radical scavenging activity preincubated for 15 mins followed by AAPH addition measured every minute for 120 mins by ORAC-FL based fluorescein assay. It counts as functional.
The target of series [3] is Acetylcholinesterase (Electrophorus electricus) (UniProt O42275). Kind of series: Inhibition of electric eel AChE at 100 uM using acetylthiocholine chloride as substrate incubated for 5 mins followed by substrate addition measured after 180 secs by Ellman's method relative to control. (Ellman's reagent forms a yellow product with free thiols.)
Series [4] has as its target T1, Amine oxidase [flavin-containing] B (Homo sapiens, UniProt P27338).
T1 sequence (P27338 whole entry): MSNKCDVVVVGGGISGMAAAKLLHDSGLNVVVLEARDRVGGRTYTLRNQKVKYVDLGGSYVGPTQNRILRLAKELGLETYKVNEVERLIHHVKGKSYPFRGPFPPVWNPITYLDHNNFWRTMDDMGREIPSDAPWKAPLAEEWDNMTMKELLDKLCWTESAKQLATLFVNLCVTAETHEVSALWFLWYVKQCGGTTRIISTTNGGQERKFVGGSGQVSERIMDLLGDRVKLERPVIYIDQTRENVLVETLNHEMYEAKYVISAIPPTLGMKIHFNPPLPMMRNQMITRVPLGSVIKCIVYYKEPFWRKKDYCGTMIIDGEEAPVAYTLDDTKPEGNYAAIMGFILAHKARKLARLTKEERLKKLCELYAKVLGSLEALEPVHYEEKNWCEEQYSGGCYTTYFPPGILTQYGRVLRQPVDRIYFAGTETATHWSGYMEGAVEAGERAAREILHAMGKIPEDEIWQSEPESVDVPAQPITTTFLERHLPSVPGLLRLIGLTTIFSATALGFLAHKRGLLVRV
In words: Inhibition of human MAO-B at 100 uM using p-tyramine as substrate incubated for 15 mins followed by substrate addition measured for 20 mins by fluorescence assay relative to control.

The target in series [5] is T2, Cholinesterase (Homo sapiens, UniProt P06276). In words: Inhibition of human serum BuChE at 100 uM using butyrylthiocholine iodide as substrate incubated for 5 mins followed by substrate addition measured after 180 secs by Ellman's method relative to control.
Series [6] concerns the target T3, Acetylcholinesterase (Homo sapiens, UniProt P22303). In words: Inhibition of human erythrocyte AChE at 100 uM using acetylthiocholine chloride as substrate incubated for 5 mins followed by substrate addition measured after 180 secs by Ellman's method relative to control.
The target of series [7] is Cholinesterase (Equus caballus) (UniProt P81908). Kind of series: Inhibition of equine serum BuChE at 100 uM using butyrylthiocholine iodide as substrate incubated for 5 mins followed by substrate addition measured after 180 secs by Ellman's method relative to control.
Series [8] in a line: Antioxidant activity assessed as ABTS radical cation scavenging activity by measuring trolox equivalent antioxidant capacity measured at 6 mins. It counts as functional.
Series [9] can be described thus: Antioxidant activity assessed as DPPH radical scavenging activity at 100 uM measured after 30 mins incubation in dark by UV-Visible spectrophotometric analysis relative to control. Type of series: functional.
Series [10] deals with T4, Amine oxidase [flavin-containing] A (Homo sapiens, UniProt P21397).
T4 sequence (P21397 whole entry): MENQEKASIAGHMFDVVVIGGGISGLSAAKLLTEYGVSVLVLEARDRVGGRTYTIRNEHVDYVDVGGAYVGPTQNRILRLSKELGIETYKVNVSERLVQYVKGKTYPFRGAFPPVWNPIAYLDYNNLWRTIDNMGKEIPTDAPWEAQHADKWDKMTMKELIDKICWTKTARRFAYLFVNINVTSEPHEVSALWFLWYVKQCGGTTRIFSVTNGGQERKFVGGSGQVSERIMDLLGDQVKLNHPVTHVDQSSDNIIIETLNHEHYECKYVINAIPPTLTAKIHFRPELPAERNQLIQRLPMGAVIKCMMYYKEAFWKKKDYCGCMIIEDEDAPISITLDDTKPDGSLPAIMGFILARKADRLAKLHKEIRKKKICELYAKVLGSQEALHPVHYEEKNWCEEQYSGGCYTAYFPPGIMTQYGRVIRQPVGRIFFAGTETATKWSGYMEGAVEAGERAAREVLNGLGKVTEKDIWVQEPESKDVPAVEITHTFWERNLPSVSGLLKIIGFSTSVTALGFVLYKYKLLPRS
Kind of series: Inhibition of human MAO-A at 100 uM using p-tyramine as substrate incubated for 15 mins followed by substrate addition measured for 20 mins by fluorescence assay relative to control.

Series [11] addresses T1, Amine oxidase [flavin-containing] B. Kind of series: Inhibition of human MAO-B using p-tyramine as substrate incubated for 15 mins followed by substrate addition measured for 20 mins by fluorescence assay.
The target in series [12] is Acetylcholinesterase (Electrophorus electricus, UniProt O42275). In words: Inhibition of electric eel AChE using acetylthiocholine chloride as substrate incubated for 5 mins followed by substrate addition measured after 180 secs by Ellman's method.
In series [13] the target is T3, Acetylcholinesterase. Kind of series: Mixed-type inhibition of human AChE using acetylthiocholine chloride as substrate incubated for 5 mins followed by substrate addition by Lineweaver-Burk plot analysis.
Series [14] concerns the target T4, Amine oxidase [flavin-containing] A. Kind of series: Inhibition of human MAO-A using p-tyramine as substrate incubated for 15 mins followed by substrate addition measured for 20 mins by fluorescence assay.
Series [15] deals with Amyloid-beta precursor protein (Homo sapiens) (UniProt P05067). Kind of series: Inhibition of AChE-induced amyloid beta 40 (unknown origin) aggregation at 100 uM by thioflavin-T fluorescence assay relative to control.
The species named for another series is Homo sapiens. Kind of series: Selectivity index, ratio of IC50 for human serum BuChE to IC50 for human erythrocyte AChE.
In series [16] the test system is PC-12. In words: Cytotoxicity against rat PC12 cells assessed as decrease in cell viability at 30 uM after 24 hrs by MTT assay. It counts as cell-based. The conditions noted are these: pc-12, 24 h.
Series [17] can be described thus: Antioxidant activity assessed as DPPH radical scavenging activity measured after 30 mins incubation in dark by UV-Visible spectrophotometric analysis. Type of series: functional.
The test system of series [18] is PC-12. In words: Cytotoxicity against rat PC12 cells assessed as decrease in cell viability at 20 uM after 24 hrs by MTT assay. It counts as cell-based. Conditions: pc-12, 24 h.
For series [19], the target named is T3, Acetylcholinesterase. Kind of series: Inhibition of human erythrocyte AChE using acetylthiocholine chloride as substrate incubated for 5 mins followed by substrate addition measured after 180 secs by Ellman's method.
In series [20] the test system is PC-12. In words: Neuroprotective activity against H2O2-induced oxidative stress in rat PC12 cells assessed as increase in cell viability pretreated for 4 hrs followed by H2O2 challenge measured after 24 hrs by MTT assay. It counts as functional, cell-based.
Series [21] addresses Amyloid-beta precursor protein (Homo sapiens) (UniProt P05067). In words: Inhibition of self-induced amyloid beta 42 (unknown origin) aggregation at 20 uM incubated for 46 to 48 hrs by thioflavin-T fluorescence assay relative to control.
Series [22] deals with T2, Cholinesterase. Kind of series: Inhibition of human serum BuChE using butyrylthiocholine iodide as substrate incubated for 5 mins followed by substrate addition measured after 180 secs by Ellman's method. The conditions noted are these: read-out: IC50.
Series [23] deals with Cholinesterase (Equus caballus, UniProt P81908). In words: Inhibition of equine serum BuChE using butyrylthiocholine iodide as substrate incubated for 5 mins followed by substrate addition measured after 180 secs by Ellman's method.

Active and inactive are the calls of the source.

Chain of Cholinesterase (Equus caballus) (P81908 whole entry): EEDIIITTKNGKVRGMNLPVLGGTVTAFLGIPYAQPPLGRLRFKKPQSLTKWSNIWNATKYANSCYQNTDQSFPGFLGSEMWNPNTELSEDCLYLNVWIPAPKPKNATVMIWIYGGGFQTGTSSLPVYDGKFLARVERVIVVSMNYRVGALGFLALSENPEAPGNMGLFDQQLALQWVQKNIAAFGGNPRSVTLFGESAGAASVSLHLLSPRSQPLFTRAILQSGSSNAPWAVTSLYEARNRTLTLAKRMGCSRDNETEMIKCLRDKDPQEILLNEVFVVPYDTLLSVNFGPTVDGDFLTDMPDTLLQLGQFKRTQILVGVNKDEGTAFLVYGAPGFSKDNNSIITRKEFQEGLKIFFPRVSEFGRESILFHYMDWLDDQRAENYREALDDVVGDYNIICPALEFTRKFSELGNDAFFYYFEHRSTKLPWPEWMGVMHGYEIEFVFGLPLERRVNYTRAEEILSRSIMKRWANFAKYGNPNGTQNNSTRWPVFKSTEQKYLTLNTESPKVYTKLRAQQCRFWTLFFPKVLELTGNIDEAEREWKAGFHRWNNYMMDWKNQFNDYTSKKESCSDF
T3 sequence (P22303 whole entry): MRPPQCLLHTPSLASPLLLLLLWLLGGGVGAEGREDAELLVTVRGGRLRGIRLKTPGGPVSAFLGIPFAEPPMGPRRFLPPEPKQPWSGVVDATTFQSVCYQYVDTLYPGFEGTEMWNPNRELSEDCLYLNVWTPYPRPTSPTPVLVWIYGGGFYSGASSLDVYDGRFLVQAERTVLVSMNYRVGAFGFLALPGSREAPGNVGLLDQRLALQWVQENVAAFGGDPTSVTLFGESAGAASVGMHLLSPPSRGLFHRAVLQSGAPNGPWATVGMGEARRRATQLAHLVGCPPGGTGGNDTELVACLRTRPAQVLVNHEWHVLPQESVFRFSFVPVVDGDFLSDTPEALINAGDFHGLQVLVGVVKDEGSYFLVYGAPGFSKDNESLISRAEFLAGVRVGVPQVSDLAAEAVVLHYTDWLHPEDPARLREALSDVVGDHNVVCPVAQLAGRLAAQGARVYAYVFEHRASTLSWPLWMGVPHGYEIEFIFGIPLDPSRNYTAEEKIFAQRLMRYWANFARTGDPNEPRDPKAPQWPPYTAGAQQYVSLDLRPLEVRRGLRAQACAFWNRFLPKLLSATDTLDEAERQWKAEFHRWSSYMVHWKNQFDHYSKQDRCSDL
Chain of Acetylcholinesterase (Electrophorus electricus, UniProt O42275) (O42275 whole entry): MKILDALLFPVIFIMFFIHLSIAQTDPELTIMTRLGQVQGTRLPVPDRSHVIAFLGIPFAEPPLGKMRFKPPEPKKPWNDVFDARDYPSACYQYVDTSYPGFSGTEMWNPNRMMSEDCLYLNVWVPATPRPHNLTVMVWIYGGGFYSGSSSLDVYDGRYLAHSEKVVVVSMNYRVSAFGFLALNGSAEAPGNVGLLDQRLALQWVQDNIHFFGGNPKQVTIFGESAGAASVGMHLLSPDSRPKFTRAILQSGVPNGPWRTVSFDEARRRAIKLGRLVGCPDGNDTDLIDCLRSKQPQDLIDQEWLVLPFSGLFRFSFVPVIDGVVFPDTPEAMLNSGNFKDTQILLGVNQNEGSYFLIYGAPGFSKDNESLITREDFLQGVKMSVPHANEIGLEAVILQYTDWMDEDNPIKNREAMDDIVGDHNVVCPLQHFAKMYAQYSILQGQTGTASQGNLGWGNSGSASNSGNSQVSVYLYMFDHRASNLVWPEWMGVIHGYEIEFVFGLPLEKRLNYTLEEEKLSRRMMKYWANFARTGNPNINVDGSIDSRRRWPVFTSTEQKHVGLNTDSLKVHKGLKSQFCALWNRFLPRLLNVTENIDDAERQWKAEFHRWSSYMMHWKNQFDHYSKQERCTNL
T2 sequence (P06276 whole entry): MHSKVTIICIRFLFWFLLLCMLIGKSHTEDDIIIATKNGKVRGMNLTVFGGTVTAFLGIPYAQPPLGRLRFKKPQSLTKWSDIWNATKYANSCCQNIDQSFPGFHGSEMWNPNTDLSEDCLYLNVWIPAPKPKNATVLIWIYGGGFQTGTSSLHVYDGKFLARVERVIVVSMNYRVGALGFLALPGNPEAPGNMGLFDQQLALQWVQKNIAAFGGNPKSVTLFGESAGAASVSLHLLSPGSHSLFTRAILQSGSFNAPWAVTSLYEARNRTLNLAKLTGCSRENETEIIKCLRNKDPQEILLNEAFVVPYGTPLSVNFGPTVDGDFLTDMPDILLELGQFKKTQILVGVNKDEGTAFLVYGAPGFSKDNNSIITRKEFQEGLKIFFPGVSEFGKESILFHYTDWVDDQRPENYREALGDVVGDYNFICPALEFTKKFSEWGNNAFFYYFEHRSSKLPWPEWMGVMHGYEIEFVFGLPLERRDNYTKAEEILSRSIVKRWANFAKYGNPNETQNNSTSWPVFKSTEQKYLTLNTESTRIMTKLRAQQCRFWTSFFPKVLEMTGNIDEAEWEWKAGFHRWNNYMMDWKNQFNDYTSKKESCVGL
Chain of Acetylcholinesterase (Electrophorus electricus) (O42275 24-633 limits assumed): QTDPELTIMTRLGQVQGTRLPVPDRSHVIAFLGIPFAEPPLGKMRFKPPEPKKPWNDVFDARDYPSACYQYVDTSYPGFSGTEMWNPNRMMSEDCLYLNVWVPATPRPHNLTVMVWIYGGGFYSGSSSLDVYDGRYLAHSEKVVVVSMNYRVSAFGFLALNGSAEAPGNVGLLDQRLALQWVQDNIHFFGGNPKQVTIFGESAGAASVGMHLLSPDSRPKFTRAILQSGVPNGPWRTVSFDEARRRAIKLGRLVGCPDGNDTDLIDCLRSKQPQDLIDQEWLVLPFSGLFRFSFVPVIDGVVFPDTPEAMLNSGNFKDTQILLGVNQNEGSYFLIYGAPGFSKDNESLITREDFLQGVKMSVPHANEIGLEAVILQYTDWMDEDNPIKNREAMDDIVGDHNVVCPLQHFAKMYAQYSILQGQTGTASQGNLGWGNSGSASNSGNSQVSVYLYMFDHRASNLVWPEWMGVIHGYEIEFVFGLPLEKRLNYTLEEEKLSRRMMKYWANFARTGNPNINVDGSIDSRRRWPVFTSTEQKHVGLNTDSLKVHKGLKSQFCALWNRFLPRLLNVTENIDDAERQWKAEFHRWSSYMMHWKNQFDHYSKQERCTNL
Chain of Amyloid-beta precursor protein (Homo sapiens) (P05067 whole entry): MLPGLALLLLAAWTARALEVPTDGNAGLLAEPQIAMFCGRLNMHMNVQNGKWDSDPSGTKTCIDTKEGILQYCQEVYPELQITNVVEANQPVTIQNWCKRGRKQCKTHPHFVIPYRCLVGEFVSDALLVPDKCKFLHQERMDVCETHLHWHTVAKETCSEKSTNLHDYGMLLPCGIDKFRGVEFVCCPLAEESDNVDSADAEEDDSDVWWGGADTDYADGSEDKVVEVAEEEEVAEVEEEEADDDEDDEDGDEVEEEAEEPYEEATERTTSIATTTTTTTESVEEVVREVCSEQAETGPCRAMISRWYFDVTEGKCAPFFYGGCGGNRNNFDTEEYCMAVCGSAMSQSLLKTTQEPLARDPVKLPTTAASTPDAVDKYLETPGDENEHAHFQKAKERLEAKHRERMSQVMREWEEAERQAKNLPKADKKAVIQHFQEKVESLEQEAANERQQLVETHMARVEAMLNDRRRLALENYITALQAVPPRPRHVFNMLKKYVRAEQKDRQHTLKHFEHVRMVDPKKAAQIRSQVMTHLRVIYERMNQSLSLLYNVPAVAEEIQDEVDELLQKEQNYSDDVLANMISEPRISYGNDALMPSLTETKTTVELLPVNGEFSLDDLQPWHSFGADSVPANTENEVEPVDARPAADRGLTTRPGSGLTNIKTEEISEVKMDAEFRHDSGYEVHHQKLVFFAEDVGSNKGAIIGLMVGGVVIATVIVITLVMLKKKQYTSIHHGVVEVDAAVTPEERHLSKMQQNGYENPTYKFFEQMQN
Chain of Cholinesterase (Equus caballus, UniProt P81908) (P81908 whole entry): as the sequence (P81908 whole entry) above

One may read the inhibition as the change of the read-out against control, counted positive when it falls. In general, half-life refers to the time needed for the level to fall by half in the phase considered. As to `COc1cc2c(cc1OC)C(=O)C(CC1CCN(Cc3ccccc3)CC1)C2` (configuration not stated) [DONEPEZIL], the inhibition result in the series with BV-2 was “inactive”. The half-life in series [1] (microsomes) was determined as 1.21 h. Moreover, the outcome in the series on Mus musculus was Active.
Consider `CC(C)(C)c1cc(C(=O)NCC2CCN(Cc3ccccc3)CC2)cc(C(C)(C)C)c1O`, for which the Activity (mmolequiv/mmol) in series [2] came out at 1.47; in series [8], 0.65. Also, the inhibition in [3] amounted to 38.1%; on Cholinesterase [5], 23.1%; on Acetylcholinesterase [6], 15.7%; in series [7], 8.61%. Besides, the inhibition at 100 µM is 16.1% in series [4] and 15.8% in [10]. The Activity in [9] stood at 48.2%.
What is called IC50 is the concentration at which inhibition is half-maximal. For `CC(C)(C)c1cc(C(=O)NC2CCN(Cc3ccccc3)CC2)cc(C(C)(C)C)c1O`, the Activity (mmolequiv/mmol) amounted to 1.53 in series [2] and 0.74 in series [8]. Further, the inhibition against Cholinesterase [5] was determined as 19.6%; on Acetylcholinesterase [6], 20.1%; in series [7] it was 34.6%. The Activity in series [9] amounted to 47.4%. The IC50 in series [11] worked out at 85.1 µM; against Acetylcholinesterase [12], 55.6 µM. The same molecule showed an inhibition at 100 µM in series [10] of 49.2%.
In general, Ki refers to the equilibrium dissociation constant of an inhibitor or competing ligand from its target. As for `CC(C)(C)c1cc(/C=C/C(=O)NCCC2CCN(Cc3ccccc3)CC2)cc(C(C)(C)C)c1O`, the Activity (mmolequiv/mmol) was determined as 1.52 in [2] and 0.91 in series [8]. This molecule gave a Ki at Acetylcholinesterase [13] of 3.2 µM. Further, the IC50 in [14] was 62.3 µM; in series [17], 81.7 µM; against Acetylcholinesterase [19], 2.23 µM; in [11] it was 8.5 µM; against Acetylcholinesterase [12], 0.53 µM; on Cholinesterase [22], 84.8 µM. The inhibition in series [15] is 38.4%; in series [7], 48%; in series [21] it was 43.5 to 56.7%. Further, the Ratio IC50 in the series listed under Homo sapiens was 38. The figures for the Activity result in the series on PC-12 [16], in the series on PC-12 [18] and with PC-12 [20] were “Toxic”, “Non-Toxic” and “Dose-dependent effect”, respectively.
For the molecule `CC(C)(C)c1cc(C(=O)CNCC2CCN(Cc3ccccc3)CC2)cc(C(C)(C)C)c1O`, the Activity (mmolequiv/mmol) in series [2] came to 0.36; in [8] it was 0.28. Moreover, the IC50 against Cholinesterase [23] amounted to 5.38 µM; in series [14] it was 41.5 µM; against Acetylcholinesterase [19], 2.44 µM; against Acetylcholinesterase [12] it was 6.43 µM; on Cholinesterase [22], 9.61 µM. Further, in [4], the inhibition at 100 µM was 42%. Moreover, in the series listed under Homo sapiens, the Ratio IC50 turned out to be 4. Further, in series [9], the Activity was 24.2%.
Take `CC(C)(C)c1cc(CCC(=O)NCC2CCN(Cc3ccccc3)CC2)cc(C(C)(C)C)c1O`: the values for the Activity (mmolequiv/mmol) in series [2] and in [8] were 0.97 and 0.63, respectively. For the same molecule, the inhibition in series [3] stood at 27.4%; against Cholinesterase [5] it was 14%; against Acetylcholinesterase [6], 12.6%; in [7] it was 14.6%. Moreover, the IC50 in series [17] is 63.4 µM; in [11] it was 89.1 µM. In series [10], testing at 100 µM gave an inhibition of 38.4%.
With `C[C@]12CC[C@H]3[C@@H](CCC4=CC(=O)CC[C@@]43C)[C@@H]1CC[C@@H]2O` [TESTOSTERONE], the half-life in [1] (liver microsomes) was < 0.0833 h.
